Test results taken from patent US5519034A, “Tetraisoquinoline compounds which have useful pharmaceutical utility” (The Boots Company PLC, priority 1991, dated 1996).
Where two headings read alike, the source gives them in different places.

What was measured:
D2 dopamine receptors = target: T1, D2 dopamine receptors (Rattus norvegicus, UniProt P61169); assay: D2 dopamine receptor binding: inhibition of tritiated (S)-sulpiride binding, rat striatal samples; parameters: species or system rat (male Charles River CD rats); conditions: for Ki: rat striatum, tritiated (S)-sulpiride; for Ki for D2 / Ki for D1: ratio to two significant figures
T1 construct: Striatal samples from the brains of male Charles River CD rats; from tissue; host or cells: striatum of male Charles River CD rats (washed membrane pellet)
Protocol: (§1) Striatal samples from the brains of male Charles River CD rats weighing between 140-250 g were homogenised in ice-cold 50 mM Tris-HCl buffer (pH 7.4 when measured at 25° C. for D1 binding assays and pH 7.7 when measured at 25° C. for D2 binding assays) and centrifuged for 10 minutes (at 21,000 g when used for D1binding assay and 40,000 g when used for D2binding assays). The pellet was resuspended in the same buffer, again centrifuged and the final pellet stored at -80° C. Before each test the pellet was resuspended in 50 mM Tris-HCl buffer containing 120 mM NaCl, 5 mM KCl, 2 mM CaCl2 and 1 mM MgCl2 at pH 7.4 for the D1 binding assays and at pH 7.7 with the addition of 6 mM ascorbic acid for the D2 binding assays. Aliquots of this suspension were then added to tubes containing the ligand and either the compound under test or buffer. For the D1 binding assays the ligand was tritiated SCH 23390 and the mixture was incubated at 37° C. for 30 minutes before the incubation was terminated by rapid filtration. For the D2 binding assays the ligand was tritiated (S)-sulpiride and the mixture was incubated at 4° C. for 40 minutes before the incubation was terminated by rapid filtration. Non-specific binding was determined experimentally by the addition of saturating concentrations of chloropromazine or spiroperidol for D1 and D2 receptors respectively.
(§2) The filters were washed with ice-cold Tris-HCl buffer and dried. The filters were punched out on to vials containing scintillation fluid and were left for about 20 hours before being counted by scintillation spectrophotometry. Displacement curves were produced over a range of concentrations of the compound under test and the concentration which gave a 50% inhibition of specific binding (IC50) obtained from the curve. The inhibition coefficient Ki was then calculated using the formula [formula] in which [ligand] is the concentration of the tritiated ligand used and KD is the equilibrium dissociation constant for the ligand.
(§3) In some cases Ki values for D2 binding were estimated from single concentration data by the application of the Langmuir adsorption isotherm equation. These cases are indicated by an "E" in the last two columns of Table I. In other cases it was not possible to determine or estimate the Ki and the Ki value is given as greater than (>) that which would result from the application of the above formula to the highest concentration which displaced ≤50% of the ligand.

D1 dopamine receptors = target: T2, D1 dopamine receptors (Rattus norvegicus, UniProt P18901); assay: D1 dopamine receptor binding: inhibition of tritiated SCH 23390 binding, rat striatal samples; parameters: species or system rat (male Charles River CD rats); conditions: rat striatum, tritiated SCH 23390, pH 7.4, 37° C., 30 minutes
T2 construct: Striatal samples from the brains of male Charles River CD rats; from tissue; host or cells: striatum of male Charles River CD rats (washed membrane pellet)
Protocol: as §1, §2, §3

[1] = estimated from single concentration data by Langmuir adsorption isotherm equation, read-out: Ki for D2 binding (marked E)
[2] = pH 7.7, 4° C., 40 minutes, > = from highest concentration which displaced ≤50% of the ligand, read-out: Ki for D2 binding

T2 sequence (P18901 whole entry): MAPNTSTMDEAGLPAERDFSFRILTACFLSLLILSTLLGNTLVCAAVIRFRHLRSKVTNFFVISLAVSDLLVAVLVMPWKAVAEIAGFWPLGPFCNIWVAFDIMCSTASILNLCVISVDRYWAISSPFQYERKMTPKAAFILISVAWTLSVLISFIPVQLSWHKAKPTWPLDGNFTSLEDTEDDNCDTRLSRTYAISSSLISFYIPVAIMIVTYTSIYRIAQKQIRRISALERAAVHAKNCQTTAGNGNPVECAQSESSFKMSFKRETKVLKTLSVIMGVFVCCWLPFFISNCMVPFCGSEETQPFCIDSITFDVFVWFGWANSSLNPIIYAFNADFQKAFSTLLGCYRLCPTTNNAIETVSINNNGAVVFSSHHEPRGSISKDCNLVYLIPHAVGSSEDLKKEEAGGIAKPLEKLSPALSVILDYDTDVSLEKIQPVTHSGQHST
T1 sequence (P61169 whole entry): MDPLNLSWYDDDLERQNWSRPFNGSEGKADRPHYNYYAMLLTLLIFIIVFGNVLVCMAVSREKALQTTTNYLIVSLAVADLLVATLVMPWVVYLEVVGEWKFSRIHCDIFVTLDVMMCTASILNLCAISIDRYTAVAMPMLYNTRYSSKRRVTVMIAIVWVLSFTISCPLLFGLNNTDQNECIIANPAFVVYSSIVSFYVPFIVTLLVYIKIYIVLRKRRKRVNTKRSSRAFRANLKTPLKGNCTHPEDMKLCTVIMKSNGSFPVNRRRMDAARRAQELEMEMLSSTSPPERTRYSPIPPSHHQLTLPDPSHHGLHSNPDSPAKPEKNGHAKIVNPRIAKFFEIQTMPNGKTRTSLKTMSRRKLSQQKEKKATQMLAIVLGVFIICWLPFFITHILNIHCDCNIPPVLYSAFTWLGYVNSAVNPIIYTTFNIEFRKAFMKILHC

Row | SMILES | Ki (D2 dopamine receptors; [1]) [µM] | Ki (D1 dopamine receptors) [µM] | Ki (D2 dopamine receptors; [2]) [µM] | Ki for D2 / Ki for D1 (D2 dopamine receptors)
1 | CN1CCc2c(O)cccc2C1C1(c2ccc(Cl)cc2)CCC1 (stereo not shown) [Example 26, 1-[1-(4-chlorophenyl)cyclobutyl]-5-hydroxy-2-methyl-1,2,3,4-tetrahydroisoquinoline] | 7 | 0.56 | – | –
2 | CN1CCc2cc(O)c(O)cc2C1C1(c2ccc(Cl)cc2)CCCC1 (stereo not shown) [Example 14, 1-[1-(4-chlorophenyl)cyclopentyl]-6,7-dihydroxy-2-methyl-1,2,3,4-tetrahydroisoquinoline] | – | 0.12 | 4.8 | 40
3 | COc1cc2c(cc1O)C(C1(c3ccccc3)CCC1)N(C)CC2 (stereo not shown) [Example 55, 7-hydroxy-6-methoxy-2-methyl-1-(1-phenylcyclobutyl)-1,2,3,4-tetrahydroisoquinoline] | – | 0.041 | > 0.5 | > 12
4 | COc1cc2c(cc1O)C(C1(c3ccccc3Cl)CC1)N(C)CC2 (single isomer, unassigned; (+)) [Example 77, (+)-1-[1-(2-chlorophenyl)cyclopropyl]-7-hydroxy-6-methoxy-2-methyl-1,2,3,4-tetrahydroisoquinoline] | – | 0.00028 | 0.9 | 3200
5 | CN1CCc2cc(F)c(O)cc2C1C1(c2ccc(Br)cc2)CCC1 (stereo not shown) [Example 6, 1-[1-(4-bromophenyl)cyclobutyl]-6-fluoro-7-hydroxy-2-methyl-1,2,3,4-tetrahydroisoquinoline] | – | 0.003 | 41 | 14000
6 | CN1CCc2cc(F)c(O)cc2C1C1(c2ccccc2Cl)CC1 (single isomer, unassigned; (+)) [Example 62, (+)-1-[1-(2-chlorophenyl)cyclopropyl]-6-fluoro-7-hydroxy-2-methyl-1,2,3,4-tetrahydroisoquinoline] | – | 0.00038 | 0.41 | 1100
7 | CN1CCc2cc(Cl)c(O)cc2C1C1(c2ccccc2Cl)CCC1 (stereo not shown) [Example 22, 6-chloro-1-[1-(2-chlorophenyl)cyclobutyl]-7-hydroxy-2-methyl-1,2,3,4-tetrahydroisoquinoline] | – | 0.0023 | 1.8 | 780
8 | CN1CCc2cc(F)c(O)cc2C1C1(c2ccccc2)CCC1 (stereo not shown) [Example 25, 6-fluoro-7-hydroxy-2-methyl-1-(1-phenylcyclobutyl)-1,2,3,4-tetrahydroisoquinoline] | – | 0.019 | 5400 | 280000
9 | CN1CCc2cc(O)c(O)cc2C1C1(c2ccc(Cl)cc2Cl)CCC1 (stereo not shown) [Example 46] | – | 0.0066 | 1.2 | 180
10 | COc1cc2c(cc1O)C(C1(c3ccccc3Cl)CC1)N(C)CC2 (stereo not shown) [Example 74, 1-[1-(2-chlorophenyl)cyclopropyl]-7-hydroxy-6-methoxy-2-methyl-1,2,3,4-tetrahydroisoquinoline] | – | 0.0015 | 1.1 | 730
11 | CN1CCc2cc(O)c(O)cc2C1C1(c2ccc(Cl)cc2)CC1 (stereo not shown) [Example 13, 1-[1-(4-chlorophenyl)cyclopropyl]-6,7-dihydroxy-2-methyl-1,2,3,4-tetrahydroisoquinoline] | – | 0.044 | 3.7 | 84
12 | CN1CCc2cc(F)c(O)cc2C1C1(c2ccccc2Cl)CC1 (stereo not shown) [Example 63, 1-[1-(2-chlorophenyl)cyclopropyl]-6-fluoro-7-hydroxy-2-methyl-1,2,3,4-tetrahydroisoquinoline] | – | 0.002 | 1.6 | 800
13 | CN1CCc2cc(O)c(O)cc2C1C1(c2cccc(Cl)c2)CCC1 (stereo not shown) [Example 33, 1-[1-(3-chlorophenyl)cyclobutyl]-6,7-dihydroxy-2-methyl-1,2,3,4-tetrahydroisoquinoline] | – | 0.065 | 23 | 350
14 | COc1cc2c(cc1O)C(C1(c3ccccc3)CCCCC1)N(C)CC2 (stereo not shown) [Example 36, 7-hydroxy-6-methoxy-2-methyl-1-(1-phenylcyclohexyl)-1,2,3,4-tetrahydroisoquinoline] | – | 0.062 | 4.4 | 71
15 | COc1cc2c(cc1O)C(C1(c3ccccc3Cl)CC1)N(C)CC2 (single isomer, unassigned; (+)) [Example 85, (+)-1-[1-(2-chlorophenyl)cyclopropyl]-7-hydroxy-6-methoxy-2-methyl-1,2,3,4-tetrahydroisoquinoline] | – | 0.00028 | 0.9 | 3200
16 | CN1CCc2c(cc(O)c(O)c2Cl)C1C1(c2ccccc2)CCC1 (stereo not shown) [Example 32, 5-chloro-6,7-dihydroxy-2-methyl-1-(1-phenylcyclobutyl)-1,2,3,4-tetrahydroisoquinoline] | – | 0.14 | > 5 | > 36
17 | CN1CCc2cc(O)c(O)cc2C1C1(c2ccc(Br)cc2)CCC1 (stereo not shown) [Example 17, 1-[1-(4-bromophenyl)cyclobutyl]-6,7-dihydroxy-2-methyl-1,2,3,4-tetrahydroisoquinoline] | – | 0.0039 | 8.9 | 2300
18 | CN1CCc2cc(F)c(O)cc2C1C1(c2ccc(Cl)cc2Cl)CCC1 (stereo not shown) [Example 9, 1-[1-(2,4-dichlorophenyl)cyclobutyl]-6-fluoro-7-hydroxy-2-methyl-1,2,3,4-tetrahydroisoquinoline] | – | 0.0019 | 1.8 | 950
19 | CN1CCc2cc(-c3ccccc3)c(O)cc2C1C1(c2ccccc2Cl)CCC1 (stereo not shown) [Example 11, 1-[1-(2-chlorophenyl)cyclobutyl]-7-hydroxy-2-methyl-6-phenyl-1,2,3,4-tetrahydroisoquinoline] | – | 0.15 | 3.5 | 23
20 | COc1cc2c(cc1O)C(C1(c3ccccc3Cl)CC(C)(C)C1)N(C)CC2 (stereo not shown) [Example 70, 7-hydroxy-6-methoxy-2-methyl-1-[1-(2-chlorophenyl)-3,3-dimethylcyclobutyl]-1,2,3,4-tetrahydroisoquinoline] | – | 0.021 | 35 | 1700
21 | COc1cc2c(cc1O)C(C1(c3ccc(Cl)cc3)CCC1)N(C)CC2 (stereo not shown) [Example 49, 1-[1-(4-chlorophenyl)cyclobutyl]-7-hydroxy-6-methoxy-2-methyl-1,2,3,4-tetrahydroisoquinoline] | – | 0.0084 | > 0.5 | > 60
22 | Cc1cc2c(cc1O)C(C1(c3ccccc3Cl)CCC1)N(C)CC2 (stereo not shown) [Example 10, 1-[1-(2-chlorophenyl)cyclobutyl]-7-hydroxy-2,6-dimethyl-1,2,3,4-tetrahydroisoquinoline] | – | 0.0016 | 2.5 | 1600
23 | CSc1ccccc1C1(C2c3cc(O)c(O)cc3CCN2C)CCC1 (stereo not shown) [Example 71, 6,7-dihydroxy-2-methyl-1-[1-(2-methylthiophenyl)cyclobutyl]-1,2,3,4-tetrahydroisoquinoline] | – | 0.0015 | 1.8 | 1200
24 | CN1CCc2cc(O)c(O)cc2C1C1(c2ccccc2C#N)CCC1 (stereo not shown) [Example 83, 1-[1-(2-cyanophenyl)cyclobutyl]-6,7-dihydroxy-2-methyl-1,2,3,4-tetrahydroisoquinoline] | 6.6 | 0.021 | – | –
25 | CN1CCc2cc(F)c(O)cc2C1C1(c2ccccc2Cl)CCC1 (stereo not shown) [Example 24, 1-[1-(2-chlorophenyl)cyclobutyl]-6-fluoro-7-hydroxy-2-methyl-1,2,3,4-tetrahydroisoquinoline] | – | 0.0019 | 1.7 | 890
26 | CN1CCc2cc(F)c(O)cc2C1C1(c2ccccc2Br)CCC1 (stereo not shown) [Example 34, 1-[1-(2-bromophenyl)cyclobutyl]-6-fluoro-7-hydroxy-2-methyl-1,2,3,4-tetrahydroisoquinoline] | – | 0.0018 | 7.8 | 4300
27 | CN1CCc2cc(O)c(O)cc2C1C1(c2ccccc2Cl)CCC1 (stereo not shown) [Example 2, 1-[1-(2-chlorophenyl)cyclobutyl]-6,7-dihydroxy-2-methyl-1,2,3,4-tetrahydroisoquinoline] | – | 0.0072 | 12 | 1700
